# Assay results published in patent US20020111274A1, “1-alkyl-3-[1-(substituted phenyl) benzotriazol-6-yl] uracils” (BASF Aktiengesellschaft, priority 2000, published 2002).
# Tests used:
# [1] = system: IPOHE Morningglory, Ivyleaf; assay: Preemergence herbicidal evaluation, IPOHE; type: in vivo, Ipomoea hederacea, (L.) Jacq.; design: scale not given here; details: preemergence
# Summary of the method: (§1)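 Visual ratings were taken four to five weeks after application. Before that, cups sown with seed in potting soil received a spray of compound dissolved in aqueous acetone, equivalent to about 0.013 to 0.800 kg/ha, and stood on greenhouse benches under conventional care.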
# ECHOG Barnyardgrass [2] = assay: Postemergence herbicidal evaluation, ECHOG; type: in vivo, Echinochloa crus-galli, (L.) Beau; design: scale not given here; details: postemergence spray, rated about two-three weeks after treatment
# Summary of the method: (§2)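 Plants are raised for roughly two weeks, then treated postemergence with compound dispersed in acetone/water (80/20) plus 1.0% seed oil adjuvant, at rates of about 0.006 kg to 0.400 kg per hectare. After greenhouse care, damage is scored two to three weeks later.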
# SETVI Foxtail, Green [3] = assay: Postemergence herbicidal evaluation, SETVI; type: in vivo, Setaria viridis, (L.) Beau; design: scale not given here; details: postemergence spray, rated about two-three weeks after treatment
# Summary of the method: as §2
# ABUTH Velvetleaf [4] = assay: Preemergence herbicidal evaluation, ABUTH; type: in vivo, Abutilon theophrasti, Medic.; design: scale not given here; details: preemergence
# Summary of the method: as §1
# [5] = system: TRZAWR Wheat, Winter, cv Riband; assay: Preemergence herbicidal evaluation, TRZAWR; type: in vivo, Triticum aestivum; design: scale not given here; details: preemergence
# Summary of the method: as §1
# CASOB Sicklepod [6] = assay: Preemergence herbicidal evaluation, CASOB; type: in vivo, Cassia obtusifolia, L.; design: scale not given here; details: preemergence
# Summary of the method: as §1
# AMBEL Ragweed, Common [7] = assay: Postemergence herbicidal evaluation, AMBEL; type: in vivo, Ambrosia artemisifolia, L.; design: scale not given here; details: postemergence spray, rated about two-three weeks after treatment
# Summary of the method: as §2
# ZEAMX Corn, Field [8] = assay: Postemergence herbicidal evaluation, ZEAMX; type: in vivo, Zea mays, L. (Sammel-Bezeichnung); design: scale not given here; details: postemergence spray, rated about two-three weeks after treatment
# Summary of the method: as §2
# AMBEL Ragweed, Common [9] = assay: Preemergence herbicidal evaluation, AMBEL; type: in vivo, Ambrosia artemisifolia, L.; design: scale not given here; details: preemergence
# Summary of the method: as §1
# [10] = system: CHEAL Lambsquarters, Common; assay: Postemergence herbicidal evaluation, CHEAL; type: in vivo, Chenopodium album, L.; design: scale not given here; details: postemergence spray, rated about two-three weeks after treatment
# Summary of the method: as §2
# ORYSAT Rice, Tebonnet [11] = assay: Postemergence herbicidal evaluation, ORYSAT; type: in vivo, Oryza sativa, (L.); design: scale not given here; details: postemergence spray, rated about two-three weeks after treatment
# Summary of the method: as §2
# [12] = system: IPOHE Morningglory, Ivyleaf; assay: Postemergence herbicidal evaluation, IPOHE; type: in vivo, Ipomoea hederacea, (L.) Jacq.; design: scale not given here; details: postemergence spray, rated about two-three weeks after treatment
# Summary of the method: as §2
# [13] = system: TRZAWR Wheat, Winter, cv Riband; assay: Postemergence herbicidal evaluation, TRZAWR; type: in vivo, Triticum aestivum; design: scale not given here; details: postemergence spray, rated about two-three weeks after treatment
# Summary of the method: as §2
# ZEAMX Corn, Field [14] = assay: Preemergence herbicidal evaluation, ZEAMX; type: in vivo, Zea mays, L. (Sammel-Bezeichnung); design: scale not given here; details: preemergence
# Summary of the method: as §1
# ECHOG Barnyardgrass [15] = assay: Preemergence herbicidal evaluation, ECHOG; type: in vivo, Echinochloa crus-galli, (L.) Beau; design: scale not given here; details: preemergence
# Summary of the method: as §1
# ORYSAT Rice, Tebonnet [16] = assay: Preemergence herbicidal evaluation, ORYSAT; type: in vivo, Oryza sativa, (L.); design: scale not given here; details: preemergence
# Summary of the method: as §1
# GLXMAW Soybean, Williams [17] = assay: Preemergence herbicidal evaluation, GLXMAW; type: in vivo, Glycine max, (L.) Merr. cv Williams; design: scale not given here; details: preemergence
# Summary of the method: as §1
# CASOB Sicklepod [18] = assay: Postemergence herbicidal evaluation, CASOB; type: in vivo, Cassia obtusifolia, L.; design: scale not given here; details: postemergence spray, rated about two-three weeks after treatment
# Summary of the method: as §2
# ABUTH Velvetleaf [19] = assay: Postemergence herbicidal evaluation, ABUTH; type: in vivo, Abutilon theophrasti, Medic.; design: scale not given here; details: postemergence spray, rated about two-three weeks after treatment
# Summary of the method: as §2
# SETVI Foxtail, Green [20] = assay: Preemergence herbicidal evaluation, SETVI; type: in vivo, Setaria viridis, (L.) Beau; design: scale not given here; details: preemergence
# Summary of the method: as §1
# GLXMAW Soybean, Williams [21] = assay: Postemergence herbicidal evaluation, GLXMAW; type: in vivo, Glycine max, (L.) Merr. cv Williams; design: scale not given here; details: postemergence spray, rated about two-three weeks after treatment
# Summary of the method: as §2
# GALAP Galium [22] = assay: Postemergence herbicidal evaluation, GALAP; type: in vivo, Galium aparine; design: scale not given here; details: postemergence spray, rated about two-three weeks after treatment
# Summary of the method: as §2
# GALAP Galium [23] = assay: Preemergence herbicidal evaluation, GALAP; type: in vivo, Galium aparine; design: scale not given here; details: preemergence
# Summary of the method: as §1
# [24] = system: CHEAL Lambsquarters, Common; assay: Preemergence herbicidal evaluation, CHEAL; type: in vivo, Chenopodium album, L.; design: scale not given here; details: preemergence
# Summary of the method: as §1
smiles,measurement,setting,value
"CCc1cccc(-n2nnc3cc(F)c(-n4c(=O)cc(C(F)(F)F)n(C)c4=O)cc32)c1 [Example 29, 3-[1-(3-ethylphenyl)-5-fluoro-1H-1,2,3-benzotriazol-6-yl]-1-methyl-6-(trifluoromethyl)-2,4(1H,3H)-pyrimidinedione]",IPOHE herbicidal rating,[1]; rate 0.016 kg/ha,0.0
same,IPOHE herbicidal rating,[1]; rate 0.032 kg/ha,3.0
same,IPOHE herbicidal rating,[1]; rate 0.062 kg/ha,6.0
same,IPOHE herbicidal rating,[1]; rate 0.125 kg/ha,7.0
same,Postemergence herbicidal rating ECHCG,ECHOG Barnyardgrass [2]; 0.008 kg/ha,1.0
same,Postemergence herbicidal rating ECHCG,ECHOG Barnyardgrass [2]; 0.016 kg/ha,1.0
same,Postemergence herbicidal rating ECHCG,ECHOG Barnyardgrass [2]; 0.032 kg/ha,1.0
same,Postemergence herbicidal rating ECHCG,ECHOG Barnyardgrass [2]; 0.062 kg/ha,1.0
same,Postemergence herbicidal rating SETVI,"SETVI Foxtail, Green [3]; 0.008 kg/ha",1.0
same,Postemergence herbicidal rating SETVI,"SETVI Foxtail, Green [3]; 0.016 kg/ha",7.0
same,Postemergence herbicidal rating SETVI,"SETVI Foxtail, Green [3]; 0.032 kg/ha",9.0
same,Postemergence herbicidal rating SETVI,"SETVI Foxtail, Green [3]; 0.062 kg/ha",9.0
same,ABUTH herbicidal rating,ABUTH Velvetleaf [4]; rate 0.016 kg/ha,6.0
same,ABUTH herbicidal rating,ABUTH Velvetleaf [4]; rate 0.032 kg/ha,9.0
same,ABUTH herbicidal rating,ABUTH Velvetleaf [4]; rate 0.062 kg/ha,9.0
same,ABUTH herbicidal rating,ABUTH Velvetleaf [4]; rate 0.125 kg/ha,9.0
same,TRZAWR herbicidal rating,[5]; rate 0.016 kg/ha,1.0
same,TRZAWR herbicidal rating,[5]; rate 0.032 kg/ha,1.0
same,TRZAWR herbicidal rating,[5]; rate 0.062 kg/ha,2.0
same,TRZAWR herbicidal rating,[5]; rate 0.125 kg/ha,2.0
same,CASOB herbicidal rating,CASOB Sicklepod [6]; rate 0.016 kg/ha,1.0
same,CASOB herbicidal rating,CASOB Sicklepod [6]; rate 0.125 kg/ha,1.0
same,Postemergence herbicidal rating AMBEL,"AMBEL Ragweed, Common [7]; 0.008 kg/ha",7.0
same,Postemergence herbicidal rating AMBEL,"AMBEL Ragweed, Common [7]; 0.016 kg/ha",7.0
same,Postemergence herbicidal rating AMBEL,"AMBEL Ragweed, Common [7]; 0.032 kg/ha",6.0
same,Postemergence herbicidal rating AMBEL,"AMBEL Ragweed, Common [7]; 0.062 kg/ha",9.0
same,Postemergence herbicidal rating ZEAMX,"ZEAMX Corn, Field [8]; 0.008 kg/ha",3.5
same,Postemergence herbicidal rating ZEAMX,"ZEAMX Corn, Field [8]; 0.016 kg/ha",5.0
same,Postemergence herbicidal rating ZEAMX,"ZEAMX Corn, Field [8]; 0.032 kg/ha",5.0
same,Postemergence herbicidal rating ZEAMX,"ZEAMX Corn, Field [8]; 0.062 kg/ha",5.0
same,AMBEL herbicidal rating,"AMBEL Ragweed, Common [9]; rate 0.016 kg/ha",0.0
same,AMBEL herbicidal rating,"AMBEL Ragweed, Common [9]; rate 0.032 kg/ha",0.0
same,AMBEL herbicidal rating,"AMBEL Ragweed, Common [9]; rate 0.062 kg/ha",3.0
same,AMBEL herbicidal rating,"AMBEL Ragweed, Common [9]; rate 0.125 kg/ha",7.0
same,Postemergence herbicidal rating CHEAL,[10]; 0.008 kg/ha,9.0
same,Postemergence herbicidal rating CHEAL,[10]; 0.016 kg/ha,9.0
same,Postemergence herbicidal rating CHEAL,[10]; 0.032 kg/ha,9.0
same,Postemergence herbicidal rating CHEAL,[10]; 0.062 kg/ha,9.0
same,Postemergence herbicidal rating ORYSAT,"ORYSAT Rice, Tebonnet [11]; 0.008 kg/ha",2.0
same,Postemergence herbicidal rating ORYSAT,"ORYSAT Rice, Tebonnet [11]; 0.016 kg/ha",2.0
same,Postemergence herbicidal rating ORYSAT,"ORYSAT Rice, Tebonnet [11]; 0.032 kg/ha",2.0
same,Postemergence herbicidal rating ORYSAT,"ORYSAT Rice, Tebonnet [11]; 0.062 kg/ha",3.0
same,Postemergence herbicidal rating IPOHE,[12]; 0.008 kg/ha,9.0
same,Postemergence herbicidal rating IPOHE,[12]; 0.016 kg/ha,9.0
same,Postemergence herbicidal rating IPOHE,[12]; 0.032 kg/ha,9.0
same,Postemergence herbicidal rating IPOHE,[12]; 0.062 kg/ha,9.0
same,Postemergence herbicidal rating TRZAWR,[13]; 0.008 kg/ha,2.0
same,Postemergence herbicidal rating TRZAWR,[13]; 0.016 kg/ha,2.0
same,Postemergence herbicidal rating TRZAWR,[13]; 0.032 kg/ha,2.5
same,Postemergence herbicidal rating TRZAWR,[13]; 0.062 kg/ha,3.0
same,ZEAMX herbicidal rating,"ZEAMX Corn, Field [14]; rate 0.016 kg/ha",0.0
same,ZEAMX herbicidal rating,"ZEAMX Corn, Field [14]; rate 0.032 kg/ha",2.0
same,ZEAMX herbicidal rating,"ZEAMX Corn, Field [14]; rate 0.062 kg/ha",4.0
same,ZEAMX herbicidal rating,"ZEAMX Corn, Field [14]; rate 0.125 kg/ha",5.0
same,ECHCG herbicidal rating,ECHOG Barnyardgrass [15]; rate 0.016 kg/ha,2.0
same,ECHCG herbicidal rating,ECHOG Barnyardgrass [15]; rate 0.032 kg/ha,4.0
same,ECHCG herbicidal rating,ECHOG Barnyardgrass [15]; rate 0.062 kg/ha,7.0
same,ECHCG herbicidal rating,ECHOG Barnyardgrass [15]; rate 0.125 kg/ha,7.0
same,ORYSAT herbicidal rating,"ORYSAT Rice, Tebonnet [16]; rate 0.016 kg/ha",0.0
same,ORYSAT herbicidal rating,"ORYSAT Rice, Tebonnet [16]; rate 0.032 kg/ha",1.0
same,ORYSAT herbicidal rating,"ORYSAT Rice, Tebonnet [16]; rate 0.062 kg/ha",3.0
same,ORYSAT herbicidal rating,"ORYSAT Rice, Tebonnet [16]; rate 0.125 kg/ha",4.0
same,GLXMAW herbicidal rating,"GLXMAW Soybean, Williams [17]; rate 0.016 kg/ha",0.0
same,GLXMAW herbicidal rating,"GLXMAW Soybean, Williams [17]; rate 0.032 kg/ha",1.0
same,GLXMAW herbicidal rating,"GLXMAW Soybean, Williams [17]; rate 0.062 kg/ha",4.0
same,GLXMAW herbicidal rating,"GLXMAW Soybean, Williams [17]; rate 0.125 kg/ha",5.0
same,Postemergence herbicidal rating CASOB,CASOB Sicklepod [18]; 0.008 kg/ha,0.0
same,Postemergence herbicidal rating CASOB,CASOB Sicklepod [18]; 0.016 kg/ha,2.0
same,Postemergence herbicidal rating CASOB,CASOB Sicklepod [18]; 0.032 kg/ha,2.0
same,Postemergence herbicidal rating CASOB,CASOB Sicklepod [18]; 0.062 kg/ha,3.0
same,Postemergence herbicidal rating ABUTH,ABUTH Velvetleaf [19]; 0.008 kg/ha,9.0
same,Postemergence herbicidal rating ABUTH,ABUTH Velvetleaf [19]; 0.016 kg/ha,9.0
same,Postemergence herbicidal rating ABUTH,ABUTH Velvetleaf [19]; 0.032 kg/ha,9.0
same,Postemergence herbicidal rating ABUTH,ABUTH Velvetleaf [19]; 0.062 kg/ha,9.0
same,melting point,,52 to 65 °C
same,SETVI herbicidal rating,"SETVI Foxtail, Green [20]; rate 0.016 kg/ha",6.0
same,SETVI herbicidal rating,"SETVI Foxtail, Green [20]; rate 0.032 kg/ha",9.0
same,SETVI herbicidal rating,"SETVI Foxtail, Green [20]; rate 0.062 kg/ha",9.0
same,SETVI herbicidal rating,"SETVI Foxtail, Green [20]; rate 0.125 kg/ha",9.0
same,Postemergence herbicidal rating GLXMAW,"GLXMAW Soybean, Williams [21]; 0.008 kg/ha",5.0
same,Postemergence herbicidal rating GLXMAW,"GLXMAW Soybean, Williams [21]; 0.016 kg/ha",6.5
same,Postemergence herbicidal rating GLXMAW,"GLXMAW Soybean, Williams [21]; 0.032 kg/ha",8.0
same,Postemergence herbicidal rating GLXMAW,"GLXMAW Soybean, Williams [21]; 0.062 kg/ha",8.0
same,Postemergence herbicidal rating GALAP,GALAP Galium [22]; 0.008 kg/ha,0.0
same,Postemergence herbicidal rating GALAP,GALAP Galium [22]; 0.016 kg/ha,1.0
same,Postemergence herbicidal rating GALAP,GALAP Galium [22]; 0.032 kg/ha,1.0
same,Postemergence herbicidal rating GALAP,GALAP Galium [22]; 0.062 kg/ha,3.0
same,GALAP herbicidal rating,GALAP Galium [23]; rate 0.016 kg/ha,0.0
same,GALAP herbicidal rating,GALAP Galium [23]; rate 0.032 kg/ha,0.0
same,GALAP herbicidal rating,GALAP Galium [23]; rate 0.062 kg/ha,1.0
same,GALAP herbicidal rating,GALAP Galium [23]; rate 0.125 kg/ha,8.0
same,CHEAL herbicidal rating,[24]; rate 0.016 kg/ha,9.0
same,CHEAL herbicidal rating,[24]; rate 0.032 kg/ha,9.0
same,CHEAL herbicidal rating,[24]; rate 0.062 kg/ha,9.0
same,CHEAL herbicidal rating,[24]; rate 0.125 kg/ha,9.0
